Data reported in patent US20220204577A1, “Synthetic Peptides With Affinity for the Interleukin-10 Receptor, Pharmaceutical Composition and Use Thereof as Immunomodulators for Treating Autoimmune, Inflammatory or Allergic Diseases” (Universidade Federal de Uberlândia, priority 2019, published 2022).
Positions of bridges follow the written chain, without caps; N, C: chain ends. No end group written: not given here.

Legend:
[1] = tested on: IFN signaling pathway; assay: IFN signaling pathway (SEAP) in Jurkart-Dual reporter cells, peptide pre-treatment then IFN-α; format: cell-based; conditions: peptide 1 hour, then IFN-α (104 EU/ml); 10 μM; 12 hours
Procedure: Therefore, we cannot confirm whether they were able to affect the activation pathway (FIGS. 6A, B, and C) in the same or better way than the negative control (rIL-10). In the assays shown in FIGS. 5 (A, B, and C) and 6 (A, B, and C), IFN expression was analyzed in Jurkart-Dual reporter cells. In the assays shown in FIGS. 5 A, B, and C, cells were treated with peptides for 1 hour followed by the addition of IFN-α (104 EU/ml). Secreted Embryonic Alkaline Phosphatase (SEAP) production was measured after 12 hours of treatment (FIG. 5A), 24 hours of treatment (FIG. 5B), and 48 hours of treatment (FIG. 5C). In the assays shown in FIGS. 6 A, B, and C, cells were treated with IFN-α (104 EU/ml) for 1 hour, and then peptides were added. SEAP production was measured after (D) 12 hours of treatment (E) 24 hours of treatment, and (F) 48 hours of treatment. IFN-α (104 EU/mL) was used as a positive control and rIL-10 (0.4 ng/mL) as a negative control. * P<0.05.

[2] = tested on: NFκB; assay: NFkB expression in Jurkart-Dual reporter cells, TNF-α pre-treatment then peptides; format: cell-based; conditions: for NFκB signaling: TNF-α then peptide
Procedure: Then another assay was performed in which the cells were pretreated with TNF-α and the peptides were added later. […] In the assays shown in FIGS. 4 A, B, and C the analysis of NFkB expression was performed in Jurkart-Dual reporter cells. Cells were treated with TNF-α (200 ng/ml) for 1 hour and the peptides were added. Luciferase was measured after 12 hours of treatment (FIG. 4A), 24 hours of treatment (FIG. 4B), and 48 hours of treatment (FIG. 4C). TNF-α (200 ng/mL) was used as a positive control and rIL-10 (Recombinant Interleukin-10) (0.4 ng/mL) as a negative control. * P<0.05; ** P<0.005; *** P<0.0005.

With “Pep 1: synthetic peptide with affinity to the Interleukin-10 receptor, SEQ ID No 01, with disulfide bridges (HACSAVIKSSCGGGS; disulfide 3-11 (inferred))” the “activation of the IFN signaling pathway” value [1] was “activation of the pathway was reduced”, the NFκB signaling ([2]; 0.0001 μM, 24 hours) was “less activation of the analyzed signaling pathway” and the NFκB signaling ([2]; 0.001 μM, 12 hours) was “decreased the activation of the analyzed pathway”. The NFκB signaling ([2]; 0.001 μM, 24 hours) was “less activation of the analyzed signaling pathway”, the NFκB signaling ([2]; 0.001 μM, 48 hours) was “reducing NFκB signaling” and the NFκB signaling ([2]; 0.005 μM, 24 hours) was “less activation of the analyzed signaling pathway”. For the same substance, the NFκB signaling ([2]; 0.05 μM, 12 hours) was “decreased the activation of the analyzed pathway”, the NFκB signaling ([2]; 0.1 μM, 12 hours) was “decreased the activation of the analyzed pathway” and the NFκB signaling ([2]; 0.1 μM, 24 hours) was “less activation of the analyzed signaling pathway”. The NFκB signaling ([2]; 0.5 μM, 12 hours) was “decreased the activation of the analyzed pathway”, the NFκB signaling ([2]; 1 μM, 12 hours) was “decreased the activation of the analyzed pathway” and the NFκB signaling ([2]; 1 μM, 24 hours) was “less activation of the analyzed signaling pathway”. The NFκB signaling ([2]; 5 μM, 12 hours) was “decreased the activation of the analyzed pathway”, the NFκB signaling ([2]; 10 μM, 12 hours) was “decreased the activation of the analyzed pathway” and the NFκB signaling ([2]; 10 μM, 24 hours) was “less activation of the analyzed signaling pathway”. The NFκB signaling ([2]; 100 μM, 24 hours) was “less activation of the analyzed signaling pathway” and the NFκB activation ([2]; cells pretreated with TNF-α, all concentrations tested, 12 and 24 hours) was “decreased NFκB activation”.
